Where no end group is shown, it is not given here.
Target: T1, γ-secretase (Homo sapiens, UniProt P49768)
T1 construct: The solubilized membrane preparations of A549 (16.5 µg total protein) were incubated with 100 µM LMDP or LMDP-lipo; endogenous in cells; host or cells: A549 cells, CHAPSO-solubilized membrane fraction
Assay: Cleavage of fluorescence-quenching substrate peptide probe by γ-secretase in solubilized A549 membrane fraction (competitive inhibition / inhibitor test)
Type: biochemical
Description: The membrane fraction was prepared according to previous reports. All procedures were carried out on ice. Cultured HeLa cells, A549 cells, MCF-7 cells and HUEhT-2 cells (about 1×10^8 cells) were pelleted. Cells were resuspended in a buffer containing 20 mM Hepes, pH 7.5, 50 mM KCl, 2 mM EGTA, and protease inhibitor cocktail, Complete Mini (Roche Applied Science), and homogenized using 15 strokes of a Dounce homogenizer with a tight pestle. The cellular homogenates were centrifuged at 800 × g for 10 min and rehomogenized as above. […] The total protein concentration was determined with a BCA Protein Assay Kit (Thermo scientific).
To measure γ-secretase activity, solubilized membrane preparations ([…] total protein) were incubated with eight µM fluorescence-quenching peptide substrate at 37°C overnight and centrifuged at 16,100 × g for 15 min. The fluorescence of supernatants was measured by Plate Infinite M200 (TECAN) with an excitation wavelength of 355 nm and emission wavelength of 440 nm.
To study LMDP cleavage by γ-secretase, the competitive inhibitory effect of LMDP or LMDP-lipo on the cleavage of the peptide substrate (the same as that used in 2.2) was evaluated. […] Then, the fluorescence intensity was measured as described in 2.2. […]

C[C@H](NC(=O)Cc1cc(F)cc(F)c1)C(=O)N[C@H](C(=O)OC(C)(C)C)c1ccccc1 [DAPT, N-[N-(3,5-Difluorophenacetyl)-L-alanyl]-S-phenylglycine t-butyl ester]
Inhibition of γ-secretase activity (A549 membrane fraction preincubated with DAPT 37°C 30 min, then substrate peptide probe 37°C overnight (Fig. S3)): about 60%

LHLMYVAAAAFVLLFFVGCGVLLSRKRRR [LMDP]
IC50 (A549 solubilized membrane 16.5 µg protein, 5 µM peptide substrate, 0-100 µM LMDP, 37°C overnight, fluorescence ex 355/em 440 nm, n = 3, read-out: IC50, competitive inhibition of cleavage of fluorescent substrate peptide probe): 29 µM

— paper PMC4208851, “Development of Nanoparticles Incorporating a Novel Liposomal Membrane Destabilization Peptide for Efficient Release of Cargos into Cancer Cells” (PLoS ONE, 2014)
